Source: the NIST ThermoML archive (doi:10.1021/je500433d)
Where “and” joins values, the source holds several entries; their conditions need not be identical. Equal entries are not always repeated.

Details: Liquid, Alternating current cell with electrodes

[Be+2].[Cl-].[Cl-] [beryllium chloride]
Details | electrical conductivity [S/m]
693.15 K | 74.7
695.15 K | 80.5
698.65 K | 87.7
701.65 K | 96.1
705.65 K | 107
711.65 K | 132
714.65 K | 143
719.65 K | 165
721.65 K | 174
724.65 K | 186
726.15 K | 193
728.15 K | 202
735.65 K | 253
738.15 K | 270
739.65 K | 288
741.65 K | 297
744.65 K | 327
746.15 K | 335
747.15 K | 348
750.15 K | 376
752.15 K | 398
755.15 K | 437
759.65 K | 454
761.15 K | 488
763.15 K | 505
765.15 K | 531
766.35 K | 545
767.35 K | 572
770.15 K | 610
772.85 K | 636
775.15 K | 670
777.65 K | 707
781.65 K | 730
783.65 K | 763
786.15 K | 824
787.15 K | 836
788.15 K | 851
790.15 K | 887
793.15 K | 935
795.15 K | 954
795.65 K | 966
797.15 K | 1010
801.65 K | 1090
807.65 K | 1160
809.65 K | 1180
822.65 K | 1390

[Cl][Pb][Cl] [lead(2+) dichloride]
Details | electrical conductivity [S/m]
783.15 K | 150
800.15 K | 159
824.15 K | 170
854.15 K | 185
883.15 K | 197
913.15 K | 210
943.15 K | 221
972.15 K | 233
1001.1 K | 244
1030.2 K | 254
1058.2 K | 263
1090.2 K | 272
1118.2 K | 279
1149.2 K | 286
1177.2 K | 292
1210.2 K | 298
1230.2 K | 302
1254.2 K | 309
1279.2 K | 315
1297.2 K | 318
1320.2 K | 321

[Cl-].[Cl-].[Zn+2] [zinc chloride]
Details | electrical conductivity
558.15 K | 0.0363 S/m
568.15 K | 0.0568 S/m
578.15 K | 0.0874 S/m
588.15 K | 0.131 S/m
598.15 K | 0.179 S/m
618.15 K | 0.36 S/m
638.15 K | 0.646 S/m
681.15 K | 1.86 S/m
717.15 K | 3.93 S/m
739.15 K | 5.57 S/m
756.65 K | 7.13 S/m
814.65 K | 14.4 S/m
814.95 K | 14.4 S/m
858.65 K | 21.9 S/m
879.15 K | 26.3 S/m
893.15 K | 28.8 S/m
936.15 K | 38.8 S/m
970.15 K | 47 S/m
974.65 K | 48.1 S/m
981.15 K | 49.8 S/m
1005.1 K | 55.4 S/m
1030.2 K | 61.4 S/m
1062.2 K | 69.2 S/m
1078.2 K | 73.5 S/m and 74.2 S/m
1092.2 K | 76.8 S/m
1100.2 K | 79.2 S/m
1110.2 K | 81.2 S/m
1114.2 K | 82.8 S/m
1128.2 K | 85.7 S/m
1131.2 K | 87.1 S/m
1143.2 K | 89 S/m
1144.7 K | 90.3 S/m
1163.2 K | 93.5 S/m
1167.2 K | 95.9 S/m
1183.7 K | 100 S/m
1195.7 K | 103 S/m
1214.2 K | 107 S/m
1225.2 K | 110 S/m
1236.2 K | 113 S/m
1245.7 K | 115 S/m
1259.7 K | 118 S/m
1279.7 K | 122 S/m
1297.2 K | 126 S/m
1306.2 K | 127 S/m
1316.7 K | 129 S/m
1324.2 K | 131 S/m
1341.7 K | 134 S/m
1350.2 K | 135 S/m
1359.7 K | 137 S/m
1376.7 K | 139 S/m
1386.7 K | 141 S/m
1399.2 K | 142 S/m
1406.2 K | 143 S/m
1414.2 K | 144 S/m
1421.2 K | 145 S/m
